Results published in US20020115649A1, “Use of texaphyrins in macrophage-mediated disease” (Pharmacyclics, Inc., priority 1998, published 2002).

Legend:
[1] = test system: macrophage of restenotic tissue; assay: Photodynamic therapy of balloon-induced iliac artery lesions (local delivery plus intravascular light); format: in vivo, New Zealand White rabbits
Method: Bilateral iliac artery lesions were induced in 9 male New Zealand White rabbits (NZW) after being on a high cholesterol diet (1%, Dyets, Bethlehem, Pa.) for 3 weeks. Each rabbit was anesthetized using a mixture of ketamine […]. The right carotid artery was exposed, carefully excised and a 5 Fr sheath (USCI) inserted into the descending aorta under fluoroscopic guidance. A 3.0 mm angioplasty balloon was advanced into the right or left iliac artery and then inflated distal to the deep femoral artery three times at 8 atm for 30 seconds. Subsequently, the same procedure was repeated in the contralateral iliac artery. Animals were maintained on the high cholesterol diet.
Six weeks after the denudation, each rabbit was reanesthetized. The left carotid artery was exposed, carefully excised and a 6 Fr sheath (USCI) inserted into the descending aorta under fluoroscopic guidance. A local drug delivery balloon (3 mm, Scimed, Minneapolis, Minn.) was advanced to the left or right iliac artery and placed at the same position as the previous balloon injury site. The proximal end of the delivery catheter was placed at the internal iliac artery under fluoroscopic control as a landmark reference. The balloon was inflated to 6 atm and 1 μmol/kg lutetium texaphyrin (LuT2BET) (2 mM in 5% mannitol) was infused intraarterially adjacent to the atheroma at a rate of 0.2 ml/min. Fifteen minutes post infusion a 0.9 mm optical fiber with a 3 cm cylindrical diffuser (Laserscope Inc., San Jose, Calif.) connected to an argon pumped dye laser (732 nm, Coherent Inc., Palo Alto, Calif.) delivered intravascular light at 180 J/cmF. One rabbit served as a light alone (no LuT2BET) control.
Two weeks following light treatment, each animal was euthanized and both iliac arteries were carefully removed from the adjacent tissue. Care was taken to harvest the exact portion of the artery where local drug delivery occurred by matching the anatomy with the respective fluoroscopic picture. The contralateral artery in the LuT2BET-treated rabbit served as a sensitizer alone control vessel. The vessels were fixed in 10% buffered formalin, embedded in paraffin and stained sequentially with RAM 11 (an antibody that binds with a cytoplasmic antigen in rabbit macrophages (DAKO)), and hematoxylin and eosin (H&E) for light microscopic analysis and planimetry.

[2] = Maximum tolerated dose of lutetium texaphyrin in one study; format: in vivo; details: intravenous injection; determined in one study
Method: Administration for Photodynaminc Therapy: By way of example, lutetium texaphyrin is administered in solution containing 2 mg/ml optionally in 5% mannitol, USP. Dosages of about 1.0 or 2.0 mg/kg to about 4.0 or 5.0 mg/kg, preferably 3.0 mg/kg may be employed, up to a maximum tolerated dose that was determined in one study to be 5.2 mg/kg. The texaphyrin is administered by intravenous injection, followed by a waiting period of from as short a time as several minutes or about 3 hours to as long as about 72 or 96 hours (depending on the treatment being effected) to facilitate intracellular uptake and clearance from the plasma and extracellular matrix prior to the administration of photoirradiation.

Redox potentials listing = format: physicochemical
From the text: Texaphyrin is a known radiosensitizer. Not wanting to be bound by theory, texaphyrin is thought to act as a radiosensitizer in the following manner. Oxygen is the ultimate electron acceptor in physiological systems. However, texaphyrins have a redox potential below that of oxygen.

[3] = Cardiac toxicity study for texaphyrin and doxorubicin; format: in vivo, Sprague Dawley rats; details: 20 micromoles/kg i.v. 1 hour after doxorubicin 1 mg/kg, once a week for twelve weeks; versus doxorubicin alone
Method: To test whether gadolinium texaphyrin exacerbates cardiac toxicity, Sprague Dawley rats were injected intravenously either with 5% mannitol (10 ml/kg, n=6), or doxorubicin (1 mg/kg, n=14), or doxorubicin (1 mg/kg) followed 1 hour later by gadolinium texaphyrin (20 micromoles/kg, n=14). The dosing schedule was repeated once a week for twelve weeks. Animals were sacrificed one week post the last dose, and hearts were fixed in formalin.

[4] = test system: restenosis of balloon-injured carotid artery; assay: Radiation therapy of balloon-injured rat carotid artery in preventing restenosis; format: in vivo, Sprague-Dawley male rats; details: 2 weeks post-treatment
From the text: The rat carotid model was used for the studies. Sprague-Dawley male rats weighing about 400-450 g were anesthetized and maintained with Ketamine/Rompun cocktail via the animal's tail vein. The rats were shaved to expose the chest and neck, and a midline incision was made to expose the left common carotid artery, the external carotid artery, and the internal carotid artery. The internal carotid artery was temporally ligated. A small incision was made in the external carotid artery and a 2F Fogarty arterial embolectomy balloon catheter (Baxter Cardiovascular Group, Irvine, Calif.) was introduced from the external carotid artery to the common carotid artery. The balloon was inflated with 0.2 ml of saline and withdrawn from near to the common carotid bifurcation with a rotating motion to produce uniform endothelial denudation and medial stretching in the common carotid artery. After 3 passages, the catheter was removed, the external carotid artery was ligated, and the internal carotid artery was untied. The incision was then closed.
GdT2BET (2mM in 5% mannitol) at 20 μmol/kg was injected via the tail vein 22 hours following balloon denudation of the carotid artery. Radiation therapy was performed 2 hours after the gadolinium texaphyrin injection. The treatment area was marked and a 250 kV X-ray radiation machine was used. […]

[5] = test system: artery closure after angioplasty; details: in vivo; cited from earlier work

Molecule: CC(=O)[O-].CC(=O)[O-].CCc1c(CC)c2cc3nc(cnc4cc(OCCOCCOCCOC)c(OCCOCCOCCOC)cc4ncc4nc(cc1[n-]2)C(CCCO)=C4C)C(C)=C3CCCO.O.[Lu+3] [LuT2BET]
- macrophages in treated lesion in intima (RAM 11 quantitative analysis) ([1]; 1 μmol/kg intraarterial plus 732 nm light, two weeks after light, versus 21±18%, P<<0.01): 5.1±5.3%
- macrophages in treated lesion in media (RAM 11 quantitative analysis) ([1]; 1 μmol/kg intraarterial plus 732 nm light, two weeks after light, versus 22±20%, P<<0.01): 7.7±10%
- Mean % plaque area in the treated segments ([1]; 1 μmol/kg intraarterial, 732 nm light 15 min post infusion, two weeks after light, nontreated segments 81±12%, P<<0.01): 73±10%
- destruction of activated macrophages ([1]; with photoirradiation): selectively destroys activated macrophages
- maximum tolerated dose [2]: 5.2 mg/kg

Molecule: CC(=O)O.CC(=O)O.CCc1c(CC)c2cc3nc(cnc4cc(OCCOCCOCCOC)c(OCCOCCOCCOC)cc4ncc4nc(cc1[n-]2)C(CCCO)=C4C)C(C)=C3CCCO.[Gd] [GdT2B2]
- redox potential (Redox potentials listing): +0.08 V.

Molecule: CC(=O)[O-].CC(=O)[O-].CCc1c(CC)c2cc3nc(cnc4cc(OCCOCCOCCOC)c(OCCOCCOCCOC)cc4ncc4nc(cc1[n-]2)C(CCCO)=C4C)C(C)=C3CCCO.O.[Gd+3] [GdT2BET]
- cardiac toxicity (histologic evaluation) [3]: did not significantly exacerbate cardiac toxicity
- restenosis in H&E sections, animals of four treated ([4]; 20 μmol/kg i.v. 22 hours after balloon denudation, 7 Gray X-ray 2 hours later, controls 100% restenosis): three had no evidence of restenosis
- restenosis, lumen circumference affected in the fourth animal ([4]; 20 μmol/kg i.v. plus 7 Gray): up to 40%

B1: Abciximab (antibody, chains of the INN, looked up, V domains shown)
VH: EVQLQQSGTVLARPGASVKMSCEASGYTFTNYWMHWVKQRPGQGLEWIGAIYPGNSDTSYIQKFKGKAKLTAVTSTTSVYMELSSLTNEDSAVYYCTLYDGYYVFAYWGQGTLVTVSA
VL: EIVLTQSPVTLSVTPGDSVSLSCRASRDISNNLHWFQQTSHESPRLLIKYASQSMSGIPSRFSGSGSGTDFTLSINSVETEDFGMYFCQQTNSWPYTFGGGTKLEIK
modifications: Fab
- reduction of the risk of artery closure after angioplasty [5]: up to 70%
